Legend:
CCR5 [1] = biological target: T1, CCR5 (Homo sapiens, UniProt P51681); settings: CCR5-expressing Chinese hamster ovary cells; cited from earlier work
T-cell line-tropic HIV-1 = settings: cited from earlier work
R5 HIV-1 = settings: clinical isolates and a laboratory strain; peripheral blood mononuclear cells; cited from earlier work
CCR5 [2] = biological target: T1, CCR5; parameters: endogenous in cells; host or cells: monocytes; settings: cited from earlier work
M-tropic HIV-1 strains = settings: cited from earlier work
CCR5 [3] = biological target: T1, CCR5; parameters: endogenous in cells; host or cells: monocytes; settings: monocytes; cited from earlier work
CCR5 [4] = assay: Binding affinity of identified peptide ligands for CCR5 (displacement of [125I]-MIP-1β); parameters: species or system human
Source text: In order to determine those ligands that had the highest affinity to the target receptor, generally, over 200 peptide libraries were screened to determine each library's respective inhibition binding. […] In additional aspects of the invention, once preferred amino acid residues are identified due to high preference values by CCR5 at the degenerate positions of the library, specific peptides are synthesized by the same methods as employed for library synthesis. In one embodiment of the invention, a high preference value is greater than 1. The value is determined by subtracting the control value from the sample value and dividing by the reference value. In a preferred embodiment of the invention, the preference value is greater than 1.2. In a highly preferred embodiment of the invention, the preference value is greater than 2. After synthesis of the identified peptide sequence, the peptide is purified by, for example, High Performance Liquid Chromatography (“HPLC”) and compositions are confirmed by Matrix-Assisted Laser Desorption Ionization-Time of Flight Mass Spectrometer (“MALDI-TOF MS”) and Edman Sequencing. Generally, relative affinities may be measured by modifying the radiolabel binding assay used in receptor purification.
Relative affinities were measured by modifying the radiolabel binding assay used in receptor purification.

PDZ = settings: binding domain PDZ; cited from earlier work
SH2 (src) = biological target: T2, SH2 (src) (Homo sapiens, UniProt P12931); settings: binding domain SH2 (src); cited from earlier work
T2 construct: SH2 (src)

14-3-3 = settings: binding domain 14-3-3; cited from earlier work
CCR5 [5] = settings: value obtained by Receptor Biology; applicant's membrane preparations comparable; read-out: Kd for MIP1-β binding; cited from earlier work

T1 sequence (P51681 whole entry): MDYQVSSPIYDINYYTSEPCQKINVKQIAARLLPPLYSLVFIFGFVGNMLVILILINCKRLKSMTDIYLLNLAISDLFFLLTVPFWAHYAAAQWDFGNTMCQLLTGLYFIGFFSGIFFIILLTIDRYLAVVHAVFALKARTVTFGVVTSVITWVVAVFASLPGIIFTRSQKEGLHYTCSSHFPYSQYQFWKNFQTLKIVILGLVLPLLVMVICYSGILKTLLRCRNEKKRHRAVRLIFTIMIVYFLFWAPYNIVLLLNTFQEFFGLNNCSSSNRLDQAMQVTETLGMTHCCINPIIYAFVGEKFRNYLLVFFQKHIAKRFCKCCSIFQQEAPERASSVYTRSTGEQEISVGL

Cc1ccc(-c2ccc3c(c2)C=C(C(=O)Nc2ccc(C[N+](C)(C)C4CCOCC4)cc2)CCC3)cc1.[Cl-] [TAK-779]
antagonism of RANTES binding to CCR5 (CCR5 [1]): antagonizes
activity against T-cell line-tropic HIV-1 (T-cell line-tropic HIV-1): inactive
concentration inhibiting replication of R5 HIV-1 (R5 HIV-1): 1.6 to 3.7 nM
concentration blocking CCR5-mediated Ca2+ signaling (CCR5 [2]): nanomolar

Aminooxypentane (AOP)-RANTES[2-68]
inhibition of infection of macrophages (M-tropic HIV-1 strains): potently inhibits
antagonist potency on CCR5 function (CCR5 [3]): subnanomolar

K-K-K-A-R-S-L-I-W-R-P-A-K-A-K-K-K (KKKARSLIWRPAKAKKK)
affinity and action on CCR5 (CCR5 [4]): enhanced affinity and action

KKKKETDV
Kd (PDZ): 42 nM

M-A-R-S-L-I-W-R-P-A-K-A-K-K-A (MARSLIWRPAKAKKA)
affinity and action on CCR5 (CCR5 [4]): enhanced affinity and action

PYBEIY
Kd (SH2 (src)): 100 nM

RLSHpSLP
Kd (14-3-3): 55.7 nM

cyclo(M-Y-A-T-R-W-K-N) (MYATRWKN; cyclic)
affinity and action on CCR5 (CCR5 [4]): enhanced affinity and action

B1: MIP-1β: natural CCR5 ligand, used as [125I] radioligand (protein, UniProt P13236 24-92, looked up)
C-C motif chemokine 4: APMGSDPPTACCFSYTARKLPRNFVVDYYETSSLCSQPAVVFQTKRSKQVCADPSESWVQEYVYDLELN
modifications: ends and bridges not checked; also: [125I] radiolabel
Kd (CCR5 [5]): < 1 nM

From US20020064770A1, “Binding compounds and methods for identifying binding compounds” (priority 2000, published 2002)
